In patent US20070298413A1, “Topoisomerase Modulators Assays” (AstraZeneca AB, priority 2003, published 2007):
Values after ≈ are worked out from the molar mass of the structure shown. Where two headings read alike, the source gives them in different places. Each block holds one compound with its values, some of them ahead of it.

Key:
H. influenzae = experiment: minimum inhibitory concentration (MIC); format: cell-based; details: Haemophilus influenzae
[1] = test system: bacteria that carry a DNA relaxation-stimulated lacZ gene on a plasmid (pRAS101, 19.4, pSB2.his); experiment: plate lawn technique on X-Gal medium (blue ring); format: cell-based, E. coli; details: spotted onto lawn of bacteria, overnight growth at 37° C.; clones pRAS101, 19.4 and pSB2.his similar
Excerpt: The principle of the screen is based on the observation that if known gyrase inhibitors are spotted onto X-Gal medium containing bacteria that carry a DNA relaxation-stimulated lacZ gene on a plasmid, clear zones of inhibition surrounded by a blue ring are formed after overnight growth. The blue ring presumably forms at the drug concentration where optimum relaxation-stimulation of the reporter gene has occurred before the cells are killed.
The following three clones were used: a) clone pRAS101 containing the gyrA promoter linked to the β-galactosidase gene; b) clone 19.4 (found by method described in section 3.3); and c) clone pSB2.his containing the hisD promoter linked to the β-galactosidase gene.
Cultures were grown overnight and diluted 1:1000 in (melted) L-agar cooled to 45° C. containing 50 μg/mL Ap and 60 μg/mL X-Gal. The medium was poured into 15×150 mm petri dishes immediately. After it had solidified, known gyrase inhibitors were applied automatically onto the solid agar surface using a Tomtec Quadra 96 machine as follows: 20 μg nalidixic acid (Nx), 100 μg novobiocin (Novo), 2 μg ciprofloxacin (Cipro), 10 μg coumermycin (Cou), 2 μg cinoxacin (Cinox), 2 μg pefloxacin (Pef), 2 μg fleroxacin (Fle), 2 μg flumequine (Flu) and 2 μg norfloxacin (Nor). […]

[2] = test system: pRAS101, gyrA promoter linked to a lacZ gene; experiment: microtiter plate β-galactosidase assay, pRAS101 positive control; format: cell-based, E. coli; details: nalidixic acid 200 μg/ml, 2 hours at 37° C.
Experimental: The β-galactosidase assays were carried out in 96-well, flat bottom microtiter plates. Blue (lacZ^+) ampicillin-resistant colonies of all sizes and shades of blue were purified, inoculated into 200 μl media (L-broth containing 50 μg/ml ampicillin) and incubated overnight at 37° C. Cultures were then diluted 1:20 into fresh broth and incubated for 1.5 hours at 37° C. with shaking at 230 rpm to mid log phase. At this point half of each culture was transferred to a duplicate microtitre plate to which nalidixic acid had been added to give a final concentration of 200 μg/ml. Both plates were incubated at 37° C. for 2 hours to allow expression of the reporter gene that was then assayed. Before carrying out the β-galactosidase assay, absorbance WAS read automatically on the Molecular Devices Microplate Reader at 595 nm in order to measure the differences in the cell titers between control and treated cultures. 25 μl of β-galactosidase assay emulsion (prepared as follows: 5 mL ONPG (O-nitrophenyl-β-D-galactopyranodside) at 4 mg/ml, 5 mL 1× Z-buffer, 0.3 mL 1% SDS, 0.2 mL chloroform, 0.2 mL ether), was added to each well. The plates were read at 28° C. on a Molecular Devices Microplate Reader at 420 nm for 2 mins at 0.09 sec intervals. […]

[3] = test system: clone 19.4 (relaxation-stimulated promoter upstream of lacZ in pSB2); experiment: microtiter plate β-galactosidase assay, clone 19.4; format: cell-based, E. coli; details: nalidixic acid 200 μg/ml, 2 hours at 37° C., treated vs control culture
Excerpt: The T4 terminator (T4 t) and lacZ gene were inserted into a plasmid expression vector pTB244 to create the construct pSB2. In this construct, the transcription of the lacZ gene, without a promoter, is prevented by the upstream T4 terminator, such that insertion of a promoter is necessary for lacZ expression. A random E. coli DNA library was constructed by inserting Escherichia coli chromosomal Sau3A fragments into the BamHI site of the screening vector pSB2, upstream of the promoter-less lacZ gene.
The library was transformed into the lacZ^− E. coli host strain MSD1011 (MM294 Δlac=E. coli K12 hsdR Δlac). […] Blue transformants were screened for the presence of relaxation-stimulated promoters using the microtiter plate β-galactosidase assay.
The β-galactosidase assays were carried out in 96-well, flat bottom microtiter plates. Blue (lacZ^+) ampicillin-resistant colonies of all sizes and shades of blue were purified, inoculated into 200 μl media (L-broth containing 50 μg/ml ampicillin) and incubated overnight at 37° C. […] Before carrying out the β-galactosidase assay, absorbance WAS read automatically on the Molecular Devices Microplate Reader at 595 nm in order to measure the differences in the cell titers between control and treated cultures. […] The plates were read at 28° C. on a Molecular Devices Microplate Reader at 420 nm for 2 mins at 0.09 sec intervals.

MIC (H. influenzae; measured MIC against H. influenzae, read-out: MIC): 0.125 µg/mL (≈ 0.358 µM)
SMILES: CC1(C)S[C@@H]2[C@H](NC(=O)[C@H](N)c3ccccc3)C(=O)N2[C@H]1C(=O)O [ampicillin]

SMILES: O=C(N[C@H](CO)[C@H](O)c1ccc([N+](=O)[O-])cc1)C(Cl)Cl [chloramphenicol]
stimulation of the DNA relaxation-stimulated reporter gene (blue ring) [1]: little to no stimulation

SMILES: CCn1cc(C(=O)O)c(=O)c2ccc(C)nc21 [nalidixic acid]
stimulation ratio (average) [2]: 3.1 fold
relaxation stimulated transcription ratio [3]: 6.1

SMILES: CO[C@@H]1[C@@H](OC(N)=O)[C@@H](O)[C@H](Oc2ccc3c(O)c(NC(=O)c4ccc(O)c(CC=C(C)C)c4)c(=O)oc3c2C)OC1(C)C [novobiocin]
MIC (H. influenzae): 0.125 µg/mL (≈ 0.204 µM)
